Reference: ChEMBL document CHEMBL1136461 (Bioorg Med Chem Lett, 2003)
In brackets after ≈: the same amount, converted by molar mass.

Legend:
Enterococcus sp. = assay: Antibacterial activity against Enterococcus species; format: functional
Moraxella catarrhalis = assay: Antibacterial activity against Moraxella catarrhalis; format: functional
Mus musculus [1] = assay: Efficacy of compound to protect the methicillin resistant Staphylococcus aureus infected murine po administration; format: functional
Mus musculus [2] = assay: Efficacy of compound to protect the methicillin resistant […] infected murine sc administration; format: functional
Staphylococcus aureus [3] = assay: Antibacterial activity against methicillin resistant Staphylococcus aureus (MRSA); format: functional
Staphylococcus aureus [4] = assay: Antibacterial activity against methicillin susceptible Staphylococcus aureus (MSSA); format: functional
Streptococcus agalactiae = assay: Antibacterial activity against Streptococcus agalactiae; format: functional
Streptococcus pneumoniae [5] = assay: Antibacterial activity against Streptococcus pneumoniae (PEN-R); format: functional
Mus musculus [6] = assay: Efficacy of compound to protect the methicillin resistant Staphylococcus aureus infected murine iv administration; format: functional
Haemophilus influenzae = assay: Antibacterial activity against […] influenzae; format: functional
[7] = tested on: Streptococcus pyogenes (Streptococcus pyogenes); assay: Antibacterial activity against Streptococcus pyogenes
Streptococcus pneumoniae [8] = assay: Antibacterial activity against Staphylococcus pneumoniae (PEN-R)

Compound | MIC90 (Enterococcus sp.) | MIC90 (Moraxella catarrhalis) | ED50 (Mus musculus [1]) | ED50 (Mus musculus [2]) | MIC90 (Staphylococcus aureus [3]) | MIC90 (Staphylococcus aureus [4]) | MIC90 (Streptococcus agalactiae) | MIC90 (Streptococcus pneumoniae [5]) | ED50 (Mus musculus [6]) | MIC90 (Haemophilus influenzae) | MIC90 [7] | MIC90 (Streptococcus pneumoniae [8])
COc1cc(Cc2cnc(N)nc2N)c2c(c1OC)OC(C1CC1)C=C2 (configuration not stated) | 0.12 µg/mL (≈ 0.339 µM) | 4 µg/mL (≈ 11.3 µM) | 17 mg/kg | 20 mg/kg | 0.06 µg/mL (≈ 0.169 µM) | 0.06 µg/mL (≈ 0.169 µM) | 0.5 µg/mL (≈ 1.41 µM) | 4 µg/mL (≈ 11.3 µM) | 4.3 mg/kg | 0.5 µg/mL (≈ 1.41 µM) | 0.03 µg/mL (≈ 0.0846 µM) | 
CC(=O)NC[C@H]1CN(c2ccc(N3CCOCC3)c(F)c2)C(=O)O1 [LINEZOLID] | 4 µg/mL (≈ 11.9 µM) | 8 µg/mL (≈ 23.7 µM) |  |  | 8 µg/mL (≈ 23.7 µM) | 8 µg/mL (≈ 23.7 µM) | 2 µg/mL (≈ 5.93 µM) | 2 µg/mL (≈ 5.93 µM) |  | 64 µg/mL (≈ 190 µM) | 2 µg/mL (≈ 5.93 µM) | 
COc1cc(Cc2cnc(N)nc2N)cc(OC)c1OC [TRIMETHOPRIM] | 8 µg/mL (≈ 27.6 µM) | 128 µg/mL (≈ 441 µM) |  | 60 mg/kg | 8 µg/mL (≈ 27.6 µM) | 16 µg/mL (≈ 55.1 µM) | 128 µg/mL (≈ 441 µM) |  | 15 mg/kg | 1 µg/mL (≈ 3.44 µM) | 64 µg/mL (≈ 220 µM) | > 128 µg/mL
CN[C@H](CC(C)C)C(=O)N[C@H]1C(=O)N[C@@H](CC(N)=O)C(=O)N[C@H]2C(=O)N[C@H]3C(=O)N[C@H](C(=O)N[C@H](C(=O)O)c4cc(O)cc(O)c4-c4cc3ccc4O)[C@H](O)c3ccc(c(Cl)c3)Oc3cc2cc(c3O[C@@H]2O[C@H](CO)[C@@H](O)[C@H](O)[C@H]2O[C@H]2C[C@](C)(N)[C@H](O)[C@H](C)O2)Oc2ccc(cc2Cl)[C@H]1O [VANCOMYCIN] | 2 µg/mL (≈ 1.38 µM) | 64 µg/mL (≈ 44.2 µM) |  |  | 1 µg/mL (≈ 0.69 µM) | 1 µg/mL (≈ 0.69 µM) | 0.5 µg/mL (≈ 0.345 µM) | 1 µg/mL (≈ 0.69 µM) |  | 128 µg/mL (≈ 88.3 µM) | 1 µg/mL (≈ 0.69 µM) | 
